Like-named read-outs stand apart in the source and are kept apart here.
How the values were obtained:
[1] = tested on: Acanthamoeba castellanii T4 isolate (ATCC 50370) trophozoites; assay: CellTiter-Glo 2.0 trophocidal assay, A. castellanii; assay type: cell-based; conditions: Acanthamoeba castellanii, ATCC50370, 72 h, read-out: Acanthamoeba castellanii EC50 ± SD
From the text: This isolate was purchased from American Type Culture Collection (ATCC). […] For sub-culturing, cells were mechanically harvested to detach the cells from the culture flasks.

[2] = Human fetal lung fibroblast (MRC5) cell cytotoxicity assay (resazurin); conditions: human
Description: (§1) Intermediate plates were made as described, adding 95 μL of DMEM complete media to 5 μL of compound per well setting a 5% DMSO amount. Log-phase MRC5 cells were removed from a T-75 TC flask using TrypLE® Express (Thermo®) and dispersed by gentle pipetting. Cell density was adjusted to working concentration in prewarmed DMEM medium: 25,000 cells in 90 μL of culture were plated in 96-well transparent Nunclon plates and allowed to settle for 24 h at 37°C and 5% CO2. […] Plates were incubated for 48 h at 37°C and 5% CO2. At 4 h prior to fluorescence measurement, 20 μL of 500 μM resazurin solution was added.
(§2) A four-parameter equation was used to fit the dose–response curves and determination of EC50 by SigmaPlot ® 13.0 software. Assays were performed in duplicate at least twice for positive compounds, to achieve a minimal […] per dose response.

[3] = tested on: Naegleria fowleri (ATCC 30215) trophozoites; assay: microbe, parasite or virus in culture
Description: Trophozoites were routinely grown axenically at 34°C, 5% CO2, in Nelson’s complete medium (NCM) in non-vented 75 cm^2 tissue culture flasks (Olympus), until the cells were 80–90% confluent. For sub-culturing, cells were placed on ice to detach the cells from the culture flasks. […] Complete NCM media is prepared by the addition of 10% fetal bovine serum (FBS) and 100 U/mL penicillin, and 100 μg/mL streptomycin antibiotics.
Trophozoites were routinely cultured as described above and only logarithmic trophozoites were used.
All assays were incubated at each of the parasites’ representative growth temperatures, described above, for 72 h. At the 72-h time point, 25 μL of CellTiter-Glo 2.0 reagent was added to all wells of the 96-well plates by hand. The plates were protected from light and contents were mixed using an orbital shaker at 300 rpm at room temperature for 2 min to induce cell lysis. After shaking, the plates were equilibrated at room temperature for 10 min to stabilize the luminescent signal. The ATP luminescent signal (relative light units; RLUs) were measured […] with a SpectraMax I3X plate reader (Molecular Devices, Sunnyvale, CA, United States). […] Values reported are from a minimum of three biological replicates with standard deviation.

[4] = tested on: Balamuthia mandrillaris (CDC:V039; ATCC 50209) trophozoites; assay: CellTiter-Glo 2.0 trophocidal assay, B. mandrillaris; assay type: cell-based; conditions: Balamuthia mandrillaris, ATCC50209, 72 h, read-out: Balamuthia mandrillaris EC50 ± SD
From the text: For sub-culturing, 0.25% Trypsin–EDTA (Gibco) cell detachment reagent was used to detach the cells from the culture flasks.

MRC5 cells = assay: Human fetal lung fibroblast (MRC5) cell cytotoxicity assay (resazurin); conditions: Table S2; in µM
Description: as §1, §2

L6 cells = assay: Rat skeletal muscle cell line (L6) cytotoxicity assay (resazurin); conditions: Table S2; in µM
Description: One hundred microliters (100 μL) per well of culture medium containing the compounds and controls were added to L6 cells previously cultured (4 × 10^3 L6 cells per well). After 72 h at 37°C the medium was exchanged, and the viable cell number was determined by resazurin (Sigma–Aldrich) reduction. 20 μl of resazurin (1.1 mg/ml) was added to each well and incubated in the dark for 2 h at 37°C.

THP-1 = assay: Cytotoxicity assay in THP-1 (MTT); assay type: cell-based; conditions: Table S2, 72 h, maximal concentration 50 μM
Description: Cytotoxicity assay in TH P-1. Cellular toxicity of all compounds was determined using the colorimetric MTT-based assay after incubation at 37 °C for 72 h in the presence of increasing concentrations of compounds (final maximal concentration was 50 μM in 0.5% DMSO per well) [ 1] . The results are expressed […]
cells. Assays were performed in duplicate at least twice to achieve a minimal n=3 per dose response. […]
Cytotoxicity assay in THP-1. Cellular toxicity of all compounds was determined using the colorimetric MTT-based assay after incubation at 37 °C for 72 h in the presence of increasing concentrations of compounds (final maximal concentration was 50 μM in 0.5% DMSO per well). […] Assays were performed in duplicate at least twice to achieve a minimal n=3 per dose response.

[5] = MRC5 cells (human fetal lung fibroblasts)
[6] = Naegleria fowleri, 72 h, read-out: Naegleria fowleri EC50 ± SD, logarithmic trophozoites, 72 h, n = 3 (converted)
[7] = read-out: Naegleria fowleri EC50 ± SD, logarithmic trophozoites, 72 h, n = 3
[8] = Naegleria fowleri, ATCC30215, 72 h, read-out: Naegleria fowleri EC50 ± SD, logarithmic trophozoites, 72 h, n = 3 (converted)
[9] = logarithmic trophozoites, 72 h, n = 3

Compound | CC50 at 48 h [2, 5] | EC50 [3, 6] | EC50 [4] | MRC5 TC50 ± Standard Deviation (MRC5 cells) | EC50 [1, 9] | EC50 [4, 9] | THP-1 TC50 ± Standard Deviation (THP-1) | also measured
c1ccc(Nc2nccc(-c3cnn4ccccc34)n2)cc1 [Compound 2a] | > 50 µM | 0.94 ± 0.17 µM | 4.2 ± 0.6 µM | – | – | – | – | EC50 [1]: 13 ± 6.9 µM
N#Cc1cccc(Nc2nccc(-c3c(C4CC4)nn4nc(N5CCOCC5)ccc34)n2)c1 [Compound 2c] | > 50 µM | 3.5 ± 0.7 µM | – | – | – | – | – | EC50 [1]: 5.9 ± 0.17 µM
Cc1cc(-c2cnn3ncccc23)nc(Nc2cccc(C#N)c2)n1 [Compound 2e] | > 50 µM | – | – | – | – | – | – | EC50 [1]: > 20 µM
N#Cc1cccc(Nc2cccc(-c3cnn4ncccc34)n2)c1 [Compound 2f] | > 50 µM | – | > 20 µM | – | – | – | – | EC50 [1]: > 20 µM
N#Cc1cccc(Nc2cccc(-c3cnn4ncccc34)c2)c1 [Compound 2g] | 19 ± 1 µM | – | > 20 µM | – | – | – | – | EC50 [1]: > 20 µM
COc1cccc(Nc2nccc(-c3cnn4ccccc34)n2)c1 [Compound 2h] | > 50 µM | – | 3.3 ± 0.97 µM | – | – | – | – | –
COc1cccc(Nc2nccc(-c3cnn4nc(N5CCOCC5)ccc34)n2)c1 [Compound 2j] | > 50 µM | – | 4.9 ± 1.6 µM | – | – | – | – | –
OC1CCC(Nc2nccc(-c3cnn4nc(N5CCOCC5)ccc34)n2)CC1 (stereo not shown) [Compound 2k] | > 50 µM | ≤ 14 µM | > 20 µM | – | – | – | – | EC50 [3, 7]: 7.5 ± 2.5 µM
COCc1nn2ncccc2c1-c1ccnc(Nc2cccc(C#N)c2)n1 [Compound 2l] | > 50 µM | – | – | – | – | – | – | EC50 [3, 7]: ≤ 14 µM; EC50 ([3]; read-out: Naegleria fowleri EC50 ± SD, logarithmic trophozoites, 72 h, n = 3, listed as 2 l): 1.1 ± 0.16 µM
CC(O)c1nn2ncccc2c1-c1ccnc(Nc2cccc(C#N)c2)n1 (stereo not shown) [Compound 2m] | > 50 µM | 17 ± 0.76 µM | – | – | – | – | – | –
CC(C)c1nn2ncccc2c1-c1ccnc(Nc2cccc(C#N)c2)n1 [Compound 2n] | 33 ± 2 µM | 1.3 ± 0.33 µM | – | – | – | – | – | –
N#Cc1cccc(Nc2nccc(-c3c(C4CC4)nn4ncccc34)n2)c1 [Compound 2o] | > 50 µM | 9.6 ± 6.6 µM | – | – | – | – | – | –
c1cnn2ncc(-c3ccnc(NC4CCCCC4)n3)c2c1 [Compound 2p] | > 50 µM | 1.4 ± 0.76 µM | 7.5 ± 3.1 µM | – | – | – | – | –
Fc1ccc(Nc2nccc(-c3c(C4CC4)nn4ncccc34)n2)cc1F [Compound 2q] | – | – | – | > 50 | – | – | – | CC50 at 48 h [2]: > 50 µM; EC50 [3, 8]: 12 ± 7.8 µM
c1cncc(Nc2nccc(-c3c(C4CC4)nn4ncccc34)n2)c1 [Compound 2r] | > 50 µM | 16 ± 3.7 µM | 13 ± 7.5 µM | – | – | – | – | –
COc1ccc2c(-c3ccnc(NC4CCC(O)CC4)n3)cnn2n1 (stereo not shown) [Compound 2s] | > 50 µM | – | 11 ± 4.2 µM | – | – | – | – | –
c1ccc(Nc2nccc(-c3cnn4ncccc34)n2)nc1 [Compound 2t] | > 50 µM | – | 10 ± 2.8 µM | – | – | – | – | –
COc1ccc2c(-c3ccnc(NC4CCC(O)CC4)n3)c(C3CC3)nn2n1 (stereo not shown) [Compound 2u] | > 50 µM | – | 9.4 ± 3.4 µM | – | – | – | – | –
O=C(N[C@H](CO)c1ccccc1)c1cc(-c2c[nH]c3ncccc23)[nH]n1 [Compound S12, (S)-N-(2-Hydroxy-1-phenylethyl)-5-(1H-pyrrolo[2,3-b]pyridin-3-yl)-1H-pyrazole-3-carboxamide] | – | – | – | 42 ± 7.7 | > 20 µM | > 20 µM | 42 ± 11 | L6 TC50 ± Standard Deviation (L6 cells): > 17; EC50 [3, 8]: > 20 µM
O=C(N[C@H](CO)c1ccccc1)c1ccc(-c2c[nH]c3ncccc23)nc1 [Compound S15, (S)-N-(2-Hydroxy-1-phenylethyl)-6-(1H-pyrrolo[2,3-b]pyridin-3-yl)nicotinamide] | – | – | – | > 50 | > 20 µM | > 20 µM | 26 ± 2.0 | L6 TC50 ± Standard Deviation (L6 cells): > 50; EC50 [3, 8]: > 20 µM
O=C1OCc2ccc(Nc3nccc(Nc4cccc5c4C(=O)NC5)n3)cc21 [Compound S20, 7-((2-((3-oxo-1,3-dihydroisobenzofuran-5-yl)amino)pyrimidin-4-yl)amino)isoindolin-1-one] | – | – | – | > 50 | > 20 µM | > 20 µM | > 50 | L6 TC50 ± Standard Deviation (L6 cells): > 50; EC50 [3, 8]: 3.3 ± 1 µM
Cn1cc(Nc2nc(NCC(F)(F)F)c3nc[nH]c3n2)cn1 [Compound S21] | – | > 20 µM | – | 50 | > 20 µM | > 20 µM | > 50 | L6 TC50 ± Standard Deviation (L6 cells): 28 ± 1.4
Cn1cc(Nc2nc(N3CCOCC3)c3nc[nH]c3n2)cn1 [Compound S22] | – | > 20 µM | – | 19 ± 0.42 | > 20 µM | > 20 µM | 19 ± 0.52 | L6 TC50 ± Standard Deviation (L6 cells): 11 ± 1.0
Fc1ccc(Nc2nc(NCC(F)(F)F)c3nc[nH]c3n2)cc1 [Compound S23] | – | > 20 µM | – | > 50 | > 20 µM | > 20 µM | > 50 | L6 TC50 ± Standard Deviation (L6 cells): > 50
Cn1cc(Nc2nc(NCCCC(F)(F)F)c3nc[nH]c3n2)cn1 [Compound S24] | – | > 20 µM | – | 50 ± 0 | > 20 µM | > 20 µM | > 50 | L6 TC50 ± Standard Deviation (L6 cells): > 50
CN(C)S(=O)(=O)c1ccc(N/N=C2\C(=O)Nc3ccccc32)cc1 [Compound S30] | – | > 20 µM | – | > 50 | > 20 µM | > 20 µM | > 50 | –

From publication PMC10206040, “Identification of novel anti-amoebic pharmacophores from kinase inhibitor chemotypes” (Frontiers in Microbiology, 2023)
